pIC50: −log10 of the molar value.
Experiments:
[1] = Plasma protein binding by ultrafiltration; assay type: in vitro ADME; design: dose or concentration left out as unconfirmed; conditions: human, rat, human and rat plasma, 37 °C
Experimental: To examine the effect of the P8-D6 plasma protein binding on the in vivo bioavailability, human and rat plasma was spiked in vitro and incubated with P8-D6. By using ultrafiltration to separate free P8-D6 from the protein-bound fraction, a plasma protein binding of 99% (Figure A) was estimated. However, neither human α-1-microglobulin (3.06%) nor human serum albumin (0.91%) is responsible for binding. According to initial findings, γ-globulins (94.59%), human transferrin (90.43%), LDL (87.99%), human α2-HS glycoprotein (85.29%), and human fibrinogen (78.89%) lead to binding of P8-D6.
To examine the extent of plasma protein binding, 150 μL of blank samples of human plasma […] and rat plasma […], human albumin (1 mM, #A1653, Merck KGaA, Darmstadt); human α1-acid glycoprotein (1 mM; #G9885, Merck KGaA, Darmstadt); human α2-HS-glycoprotein (0.1 mM; #G0516, Merck KGaA, Darmstadt); human transferrin (0.2 mM; #T8158, Merck KGaA, Darmstadt); human fibrinogen (0.2 mM; #F3879, Merck KGaA, Darmstadt); LDL (0.2 mM; […]); and human γ-globulin (1 mM; #G4386, Merck KGaA, Darmstadt) were spiked with P8-D6 in the same final concentration as the protein and incubated in a shaking water bath at 37 °C for 120 min. Afterward, the unbound fraction of P8-D6 was separated by ultrafiltration (Vivaspin 500 10 000 MWCO filter). The sample preparation was performed according to plasma samples. […]

CYP2C19 = molecular target: T1, CYP2C19 (Homo sapiens, UniProt P33261); assay: In vitro CYP inhibition, marker substrate amitriptyline; assay type: in vitro ADME
T1 construct: host or cells: human liver microsomes (one value) / recombinant CYP enzyme (other value)
Experimental: To assess metabolizing enzyme-mediated drug interactions, P8-D6 was incubated with human liver (HLM) or recombinant CYP enzymes and the respective marker substrate according to the FDA (with the exception of using amitriptyline instead of S-mephenytoin). −
However, as some conversions were catalyzed by several enzymes, the conversion rates in HLM increased (e.g., bupropion and diclofenac).
To examine a possible in vitro CYP inhibition, the following CYP enzymes and marker substrates were investigated according to the FDA: , phenacetin (CYP1A2), bupropion (CYP2B6), amodiaquine (CYP2C8), diclofenac (CYP2C9), amitriptyline (CYP2C19), dextromethorphan (CYP2D6), testosterone (CYP3A4), and nifedipine (CYP3A4). Incubation was performed in a 0.2 mL reaction mix consisting of PBS buffer (pH 7.4), 1 mM marker substrate, 1 mM NADPH, and either 0.5 mg/mL recombinant CYP enzyme or human liver microsomes. P8-D6 was added for a final concentration of 0.5 μM, 1 μM, 5 μM, 10 μM, 25 μM, 50 μM, 100 μM, 500 μM, 1000 μM, and (in some cases) 5000 μM. Sample preparation was performed according to in vitro biotransformation.

T1 sequence (P33261 whole entry): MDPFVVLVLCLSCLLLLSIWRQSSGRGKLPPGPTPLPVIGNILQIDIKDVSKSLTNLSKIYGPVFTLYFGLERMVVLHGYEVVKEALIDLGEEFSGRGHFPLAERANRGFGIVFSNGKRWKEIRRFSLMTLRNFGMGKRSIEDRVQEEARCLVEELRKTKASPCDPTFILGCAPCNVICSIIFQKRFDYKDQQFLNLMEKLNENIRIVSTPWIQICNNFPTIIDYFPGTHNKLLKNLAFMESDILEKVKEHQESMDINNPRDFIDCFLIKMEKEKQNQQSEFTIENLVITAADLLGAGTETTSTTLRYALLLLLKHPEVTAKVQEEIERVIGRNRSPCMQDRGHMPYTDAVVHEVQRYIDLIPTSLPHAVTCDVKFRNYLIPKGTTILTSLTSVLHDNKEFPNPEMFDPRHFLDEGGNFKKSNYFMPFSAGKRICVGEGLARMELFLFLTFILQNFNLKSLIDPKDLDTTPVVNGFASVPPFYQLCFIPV

## COc1cc(-c2cc3ccncc3c3nc(OCCN(C)C)c4cnccc4c23)cc(OC)c1OC [P8-D6, 6-(N,N-dimethyl-2-aminoethoxy)-11-(3,4,5-trimethoxyphenyl)-pyrido[3,4-c][1,9]-phenanthroline]
[1]
  fraction unbound at 120 min: 0.01
CYP2C19; HLM
  pIC50: 3.83
CYP2C19; recombinant CYP isoenzyme
  pIC50: 3.10
